Data published in patent US7030141B2, “Inhibitors of factor Xa and other serine proteases involved in the coagulation cascade” (priority 2001, dated 2006).

B1: Antistasin: "a potent inhibitor of blood coagulation factor Xa from the Mexican leech, Haementeria officinalis" (protein, UniProt P15358 18-136, looked up)
Antistasin: QGPFGPGCEEAGCPEGSACNIITDRCTCSGVRCRMHCPHGFQRSRYGCEFCKCRLEPMKATCDISECPEGMMCSRLTNKCDCKIDINCRKTCPNGLKRDKLGCEYCECRPKRKLIPRLS

Test system: clot lysis / acute reocclusion
Assay: not given
Conditions: dog; cited from earlier work

| Molecule | acute reocclusion | recombinant tissue plasminogen activator mediated clot lysis |
| --- | --- | --- |
| rTAP: "recombinant tick anticoagulant peptide (rTAP)", one of the "protein or polypeptide factor Xa inhibitors" (YNRLCIKPRDWIDECDSNEGGERAYFRNGKGGCDSFWICPEDHTGADYYSSYRDCFNACI; UniProt P17726 1-60, looked up) | prevent acute reocclusion | accelerate the recombinant tissue plasminogen activator mediated clot lysis |

Biological target: T1, human factor Xa (Homo sapiens, UniProt P00742)
T1 construct: purchased Enzyme Research Laboratories
T1 sequence (P00742 235-488 limits assumed): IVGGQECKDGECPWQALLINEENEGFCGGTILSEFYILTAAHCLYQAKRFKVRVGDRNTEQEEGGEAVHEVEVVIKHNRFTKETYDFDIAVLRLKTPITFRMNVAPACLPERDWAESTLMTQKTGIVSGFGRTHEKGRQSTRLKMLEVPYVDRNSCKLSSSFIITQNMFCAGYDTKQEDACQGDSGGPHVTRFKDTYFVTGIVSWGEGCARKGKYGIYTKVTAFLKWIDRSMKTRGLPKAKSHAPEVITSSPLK
T1 sequence (P00742 41-179 partner limits assumed): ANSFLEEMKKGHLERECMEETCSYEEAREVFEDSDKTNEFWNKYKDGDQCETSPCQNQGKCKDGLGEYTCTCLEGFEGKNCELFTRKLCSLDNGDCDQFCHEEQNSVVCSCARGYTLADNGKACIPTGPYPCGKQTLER
Assay: Determination of Factor Xa IC50 (cleavage of chromogenic substrate S2765)
Type: biochemical
Conditions: 3 pM factor Xa; compound at 1 uM
Procedure: A. Determination of Factor Xa IC50
These concentrations were achieved by diluting a 21.087 μM stock solution of factor Xa in the appropriate amount of a buffer comprising 10 […], 0.1% BSA, pH 7.4 (HBSA buffer). Accordingly, 5 μL of the compound to be tested in DMSO (2% final) is added to the factor Xa/buffer solution and incubated for 60 minutes at room temperature.
The IC50 is determined by monitoring the increase in […] at 390 nm exicitation, 460 nm emission, with a 455 nm cutoff, in a fluorometric plate reader.

| Molecule | Fxa 3 PM % Inhibition at 1 uM [%] |
| --- | --- |
| O=C(Nc1ccc(-c2nnn[nH]2)cc1)C1CCCN1C(=O)Nc1ccc(Cl)cc1 (stereo not drawn) | 36.64 |
| N#Cc1ccc(NC(=O)C2CCCN2C(=O)Nc2ccc(Cl)cc2)cc1 (stereo not drawn) | 16.58 |
| NS(=O)(=O)c1ccccc1-c1ccc(NC(=O)[C@@H]2CCCN2C(=O)Nc2ccc(Cl)cc2)c(F)c1 | 46.5 |

Same assay, conditions: 3 pM factor Xa; compound at 4 uM

| Molecule | Fxa 3 PM % Inhibition at 4 uM [%] |
| --- | --- |
| CC(C)c1ccc(NC(=O)N2CCCC2C(=O)Nc2ccc(-c3ccccc3S(N)(=O)=O)cc2F)cc1 (stereo not drawn) | 19.22 |
| NS(=O)(=O)c1ccccc1-c1ccc(NC(=O)C2CCCN2C(=O)Nc2ccccc2F)c(F)c1 (stereo not drawn) | 37.21 |
| NS(=O)(=O)c1ccccc1-c1ccc(NC(=O)C2CCCN2C(=O)Nc2ccc(Cl)c(Cl)c2)c(F)c1 (stereo not drawn) | 41.71 |
| Cc1ccc(Cl)cc1NC(=O)N1CCCC1C(=O)Nc1ccc(-c2ccccc2S(N)(=O)=O)cc1F (stereo not drawn) | 19.84 |
| CC(=O)c1cccc(NC(=O)N2CCCC2C(=O)Nc2ccc(-c3ccccc3S(N)(=O)=O)cc2F)c1 (stereo not drawn) | 21.04 |
| CN(C)c1ccc(NC(=O)N2CCCC2C(=O)Nc2ccc(-c3ccccc3S(N)(=O)=O)cc2F)cc1 (stereo not drawn) | 19.93 |
| N#Cc1ccc(NC(=O)N2CCCC2C(=O)Nc2ccc(-c3ccccc3S(N)(=O)=O)cc2F)cc1 (stereo not drawn) | 51.86 |
| NS(=O)(=O)c1ccccc1-c1ccc(NC(=O)C2CCCN2C(=O)Nc2ccc(F)c(Cl)c2)c(F)c1 (stereo not drawn) | 41.07 |
| NS(=O)(=O)c1ccccc1-c1ccc(NC(=O)C2CCCN2C(=O)Nc2cccc(Cl)c2)c(F)c1 (stereo not drawn) | 55.97 |
| COc1cccc(NC(=O)N2CCCC2C(=O)Nc2ccc(-c3ccccc3S(N)(=O)=O)cc2F)c1 (stereo not drawn) | 36.21 |
| NS(=O)(=O)c1ccccc1-c1ccc(NC(=O)C2CCCN2C(=O)Nc2cccc(C(F)(F)F)c2)c(F)c1 (stereo not drawn) | 21.61 |
| Cc1cc(Cl)ccc1NC(=O)N1CCCC1C(=O)Nc1ccc(-c2ccccc2S(N)(=O)=O)cc1F (stereo not drawn) | 38.88 |
| CCc1ccc(NC(=O)N2CCCC2C(=O)Nc2ccc(-c3ccccc3S(N)(=O)=O)cc2F)cc1 (stereo not drawn) | 38.14 |
| NS(=O)(=O)c1ccccc1-c1ccc(NC(=O)C2CCCN2C(=O)Nc2ccc(C(F)(F)F)cc2)c(F)c1 (stereo not drawn) | 25.1 |

Same assay, conditions: 1 h, read-out: % at 1 uM (printed in column FXA 30 pM IC50); 30 pM factor Xa; compound at 1 uM

| Molecule | inhibition at 1 µM [%] |
| --- | --- |
| CO[C@@H]1C[C@H](C(=O)Nc2ccc(N3CCC3=O)cc2F)N(C(=O)Nc2ccc(Cl)cn2)C1 | 54 |
| O=C(Nc1ccc(NC(=O)[C@H]2C[C@@H](O)CN2C(=O)Nc2ccc(Cl)cc2)cc1)C1CCCC1 | 36 |
| O=C(Nc1ccc(-c2cncnc2)cc1)[C@H]1C[C@@H](O)CN1C(=O)Nc1ccc(Cl)cc1 | 32 |
| O=C(Nc1ccc(-n2ccnn2)cc1)[C@H]1C[C@@H](O)CN1C(=O)Nc1ccc(Cl)cc1 | 26 |

Test system: arterial and venous thrombosis
Assay: not given
Conditions: various models of arterial and venous thrombosis; cited from earlier work

| Molecule | antithrombotic activity |
| --- | --- |
| B1 | displays antithrombotic activity |

Test system: arterial thrombosis
Assay: not given
Conditions: canine coronary artery electrolytic lesion model; cited from earlier work

| Molecule | thrombus mass and time to occlusion |
| --- | --- |
| rTAP: "recombinant tick anticoagulant peptide (rTAP)", one of the "protein or polypeptide factor Xa inhibitors" (YNRLCIKPRDWIDECDSNEGGERAYFRNGKGGCDSFWICPEDHTGADYYSSYRDCFNACI; UniProt P17726 1-60, looked up) | reduce thrombus mass and time to occlusion |

Test system: thrombus formation
Assay: not given
Conditions: rat arteriovenous shunt and venous stasis models; cited from earlier work

| Molecule | inhibition of thrombus formation |
| --- | --- |
| CC(=N)N1CC[C@H](Oc2ccc([C@H](Cc3ccc4ccc(C(=N)N)cc4c3)C(=O)O)cc2)C1 [DX9065a] | inhibition of thrombus formation was achieved at doses that had little effect on APTT |

Test system: venous thrombosis
Assay: not given
Conditions: rabbit model of venous thrombosis; cited from earlier work

| Molecule | fibrin deposition |
| --- | --- |
| rTAP: "recombinant tick anticoagulant peptide (rTAP)", one of the "protein or polypeptide factor Xa inhibitors" (YNRLCIKPRDWIDECDSNEGGERAYFRNGKGGCDSFWICPEDHTGADYYSSYRDCFNACI; UniProt P17726 1-60, looked up) | reduce fibrin deposition |
